Results as given in article PMC8653655, “The Design, Synthesis and Evaluation of Rho-kinase Inhibitory Activity of 4-aryl-thiazole-2-amines” (Iranian Journal of Pharmaceutical Research : IJPR, 2021).
Like-named read-outs stand apart in the source and are kept apart here.

Legend:
ROCK II = target: T1, ROCK II (Homo sapiens, UniProt O75116); test: Enzyme-based ROCK II inhibitory activity assay (ELISA, Rho kinase assay kit CY-1160); format: biochemical; settings: for inhibition at 10 µM: read-out: Inhibition of ROCKII (%); for IC50: read-out: IC50 against ROCK II
T1 construct: purchased Cycle, Nagoya, Japan CY-1160
T1 sequence (O75116 whole entry): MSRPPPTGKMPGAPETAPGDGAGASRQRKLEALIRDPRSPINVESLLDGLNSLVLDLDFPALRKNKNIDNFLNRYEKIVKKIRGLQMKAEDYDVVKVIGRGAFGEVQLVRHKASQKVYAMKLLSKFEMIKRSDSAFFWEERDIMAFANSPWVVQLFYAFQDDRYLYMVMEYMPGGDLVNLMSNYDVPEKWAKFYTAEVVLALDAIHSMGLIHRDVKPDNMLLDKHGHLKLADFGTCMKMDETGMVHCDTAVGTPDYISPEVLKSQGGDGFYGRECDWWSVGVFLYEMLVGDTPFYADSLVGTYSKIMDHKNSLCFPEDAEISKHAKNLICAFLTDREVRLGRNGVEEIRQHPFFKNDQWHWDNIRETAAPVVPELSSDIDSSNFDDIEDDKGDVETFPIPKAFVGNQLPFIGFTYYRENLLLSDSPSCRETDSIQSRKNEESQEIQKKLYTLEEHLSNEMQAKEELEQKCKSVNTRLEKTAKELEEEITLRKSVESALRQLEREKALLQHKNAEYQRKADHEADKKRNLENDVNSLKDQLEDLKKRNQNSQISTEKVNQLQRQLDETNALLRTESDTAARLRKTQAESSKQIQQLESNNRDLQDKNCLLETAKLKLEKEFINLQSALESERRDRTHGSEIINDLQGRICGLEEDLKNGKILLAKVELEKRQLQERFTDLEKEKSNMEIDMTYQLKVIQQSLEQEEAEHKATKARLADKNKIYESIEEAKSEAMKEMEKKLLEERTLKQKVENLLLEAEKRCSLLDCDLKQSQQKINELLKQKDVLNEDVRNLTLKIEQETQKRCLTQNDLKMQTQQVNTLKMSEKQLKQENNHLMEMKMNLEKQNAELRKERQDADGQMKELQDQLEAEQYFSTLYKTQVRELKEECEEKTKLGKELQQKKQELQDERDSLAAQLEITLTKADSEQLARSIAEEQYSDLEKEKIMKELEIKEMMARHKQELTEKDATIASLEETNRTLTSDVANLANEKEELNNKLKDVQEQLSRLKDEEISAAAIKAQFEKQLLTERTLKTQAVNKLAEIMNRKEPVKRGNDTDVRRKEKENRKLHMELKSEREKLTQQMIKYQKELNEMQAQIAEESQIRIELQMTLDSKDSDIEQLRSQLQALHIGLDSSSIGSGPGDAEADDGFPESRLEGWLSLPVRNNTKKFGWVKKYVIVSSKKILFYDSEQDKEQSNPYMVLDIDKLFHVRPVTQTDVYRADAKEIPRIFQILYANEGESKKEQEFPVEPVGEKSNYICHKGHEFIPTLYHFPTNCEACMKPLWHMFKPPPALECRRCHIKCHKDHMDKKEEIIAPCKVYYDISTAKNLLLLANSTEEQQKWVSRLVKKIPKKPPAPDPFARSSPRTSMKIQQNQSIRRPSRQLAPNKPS
Experimental: Enzyme-based ROCK II inhibitory activity studies
The enzyme-based ROCK II inhibitory activity assay was performed using the Rho kinase assay kit (CY-1160, Cycle, Nagoya, Japan). All operation was guided by the manufacturer’s instructions. Briefly, the compounds at 10 µM were pre-incubated in a system wherein ROCK II (0.02 ng/µL) phosphorylates the myosin-binding subunit (MBS) of kinase substrate pre-absorbed onto the microplate in the presence of Mg^2+ and ATP. Then, the system was washed after incubation at 30 ^◦C for 30 min. 100 µL of antibody was added to the wells and then incubated for 30 min at room temperature. 100 µL of substrate reagent and 100 µL stop solution were successively added to each well. The plates were read on the Viewlux in HTRF mode within 30 min.
All compounds were initially evaluated for their percentage inhibition against ROCK II with a ROCK II assay kit (CY-1160, Cycle, Japan).

ROCK = tested on: ROCK; parameters: method as in PMID 18638453; settings: compared with its in-vitro enzyme-based ROCK II activity; cited from earlier work
[1] = undesired pharmacokinetic properties, not suitable for non-topical administration; cited from earlier work
[2] = full concentration-response plots

Cc1ccc(C(=O)Nc2nc(-c3cccnc3)c(CN3CCOCC3)s2)cc1 [4a, 4-Methyl-N-(5-(morpholinomethyl)-4-(pyridin-3-yl)thiazol-2-yl) benzamide]
inhibition at 10 µM (ROCK II; compound concentration 10 µM): 46.3%
melting point: 198 to 199 °C

Cc1ccc(C(=O)Nc2nc(-c3cccnc3)c(CN3CCN(C)CC3)s2)cc1 [4b, 4-Methyl-N-(5-((4-methylpiperazin-1-yl)methyl)-4-(pyridin-3-yl)thiazol-2-yl) benz-amide]
inhibition at 10 µM (ROCK II; compound concentration 10 µM): 32.7%
melting point: 180 to 182 °C

Cc1ccc(C(=O)Nc2nc(-c3cccnc3)c(CN(C)C(C)C)s2)cc1 [4c, N-(5-((i-Propyl(methyl)amino)methyl)-4-(pyridin-3-yl)thiazol-2-yl)-4-methylbenzamide]
inhibition at 10 µM (ROCK II; compound concentration 10 µM): 32.8%

O=C(Nc1nc(-c2cccnc2)c(CN2CCOCC2)s1)c1ccc(Cl)c(Cl)c1 [4d, 3,4-Dichloro-N-(5-(morpholinomethyl)-4-(pyridin-3-yl)thiazol-2-yl) benzamide]
inhibition at 10 µM (ROCK II; compound concentration 10 µM): 42.9%
melting point: 208 to 210 °C

CN1CCN(Cc2sc(NC(=O)c3ccc(Cl)c(Cl)c3)nc2-c2cccnc2)CC1 [4e, 3,4-Dichloro-N-(5-((4-methylpiperazin-1-yl)methyl)-4-(pyridin-3-yl)thiazol-2-yl) benzamide]
inhibition at 10 µM (ROCK II; compound concentration 10 µM): 27.9%
melting point: 179 to 181 °C

CC(C)N(C)Cc1sc(NC(=O)c2ccc(Cl)c(Cl)c2)nc1-c1cccnc1 [4f, 3,4-Dichloro-N-(5-((i-propyl(methyl)amino)methyl)-4-(pyridin-3-yl)thiazol-2-yl) benzamide]
inhibition at 10 µM (ROCK II; compound concentration 10 µM): 34.6%
melting point: 171 to 172 °C

CN1CCN(Cc2sc(NC(=O)c3ccccc3)nc2-c2cccnc2)CC1 [4g, N-(5-((4-Methylpiperazin-1-yl)methyl)-4-(pyridin-3-yl)thiazol-2-yl) benzamide]
inhibition at 10 µM (ROCK II; compound concentration 10 µM): 29.6%
melting point: 198 to 199 °C

CN(C)Cc1sc(NC(=O)c2ccncc2)nc1-c1cccnc1 [4h, N-(5-((dimethylamino)methyl)-4-(pyridin-3-yl)thiazol-2-yl) isonicotinamid]
inhibition at 10 µM (ROCK II; compound concentration 10 µM): 35.3%
melting point: 201 to 202 °C

O=C(Nc1nc(-c2cccnc2)c(CN2CCOCC2)s1)c1ccncc1 [4i, N-(5-(morpholinomethyl)-4-(pyridin-3-yl)thiazol-2-yl) isonicotinamide]
inhibition at 10 µM (ROCK II; compound concentration 10 µM): 51.1%
IC50 (ROCK II; [2]): 9830 ± 1450 nM
melting point: 185 to 187 °C

CN(C)Cc1sc(NC(=O)C2COc3ccccc3O2)nc1-c1cccnc1 (stereo not shown) [4j, N-(5-((dimethylamino)methyl)-4-(pyridin-3-yl)thiazol-2-yl)-2,3-dihydrobenzo[b] [1,4] dioxine-2-carboxamide]
inhibition at 10 µM (ROCK II; compound concentration 10 µM): 68.1%
IC50 (ROCK II; [2]): 960 ± 120 nM
melting point: 192 to 196 °C

O=C(Nc1nc(-c2cccnc2)c(CN2CCCC2)s1)C1COc2ccccc2O1 (stereo not shown) [4k, N-(4-(pyridin-3-yl)-5-(pyrrolidin-1-ylmethyl)thiazol-2-yl)-2,3-dihydrobenzo[b] [1,4] dioxine-2-carboxamide]
inhibition at 10 µM (ROCK II; compound concentration 10 µM): 61.3%
IC50 (ROCK II; [2]): 1560 ± 230 nM
melting point: 181 to 182 °C

O=C(Nc1nc(-c2cccnc2)c(CN2CCOCC2)s1)C1COc2ccccc2O1 (stereo not shown) [4l, N-(5-(morpholinomethyl)-4-(pyridin-3-yl)thiazol-2-yl)-2,3-dihydrobenzo[b] [1,4] dioxine-2-carboxamide]
inhibition at 10 µM (ROCK II; compound concentration 10 µM): 73.8%
IC50 (ROCK II; [2]): 1020 ± 70 nM
melting point: 177 to 179 °C

Cc1ccc(C(=O)Nc2nc(-c3ccncc3)c(CN3CCOCC3)s2)cc1 [4m, 4-Methyl-N-(5-(morpholinomethyl)-4-(pyridin-4-yl)thiazol-2-yl) benzamide]
inhibition at 10 µM (ROCK II; compound concentration 10 µM): 48.6%
melting point: 148 to 149 °C

Cc1ccc(C(=O)Nc2nc(-c3ccncc3)c(CN3CCN(C)CC3)s2)cc1 [4n, 4-Methyl-N-(5-((4-methylpiperazin-1-yl)methyl)-4-(pyridin-4-yl)thiazol-2-yl) benzamide]
inhibition at 10 µM (ROCK II; compound concentration 10 µM): 42.4%
melting point: 148 to 150 °C

CN1CCN(Cc2sc(NC(=O)c3ccc(Cl)c(Cl)c3)nc2-c2ccncc2)CC1 [4o, 3,4-Dichloro-N-(5-((4-methylpiperazin-1-yl)methyl)-4-(pyridin-4-yl)thiazol-2-yl) benzamide]
inhibition at 10 µM (ROCK II; compound concentration 10 µM): 44.8%
melting point: 201 to 203 °C

O=C(Nc1nc(-c2ccncc2)c(CN2CCOCC2)s1)c1ccc(Cl)c(Cl)c1 [4p, 3,4-Dichloro-N-(5-(morpholinomethyl)-4-(pyridin-4-yl)thiazol-2-yl) benzamide]
inhibition at 10 µM (ROCK II; compound concentration 10 µM): 43.5%
melting point: 163 to 164 °C

O=C(Nc1nc(-c2ccncc2)c(CN2CCCC2)s1)c1ccncc1 [4r, N-(4-(Pyridin-4-yl)-5-(pyrrolidin-1-ylmethyl)thiazol-2-yl) isonicotinamide]
inhibition at 10 µM (ROCK II; compound concentration 10 µM): 47.6%
melting point: 192 to 195 °C

O=C(Nc1nc(-c2ccncc2)c(CN2CCOCC2)s1)c1ccncc1 [4s, N-(5-(morpholinomethyl)-4-(pyridin-4-yl)thiazol-2-yl) isonicotinamide]
inhibition at 10 µM (ROCK II; compound concentration 10 µM): 58.1%
IC50 (ROCK II; [2]): 8560 nM
melting point: 175 to 178 °C

O=C(Nc1nc(-c2ccncc2)c(CN2CCOCC2)s1)c1cccnc1 [4t, N-(5-(Morpholinomethyl)-4-(pyridine-4-yl)thiazol-2-yl) nicotinamide]
inhibition at 10 µM (ROCK II; compound concentration 10 µM): 52.2%
IC50 (ROCK II; [2]): 9120 ± 2460 nM
melting point: 178 to 180 °C

O=C(Nc1nc(-c2ccncc2)c(CN2CCCCC2)s1)c1cccnc1 [4u, N-(5-(Piperidin-1-ylmethyl)-4-(pyridin-4-yl)thiazol-2-yl) nicotinamide]
inhibition at 10 µM (ROCK II; compound concentration 10 µM): 38.1%
melting point: 169 to 171 °C

O=C(Nc1nc(-c2ccncc2)c(CN2CCOCC2)s1)C1COc2ccccc2O1 (stereo not shown) [4v, N-(5-(morpholinomethyl)-4-(pyridin-4-yl)thiazol-2-yl)-2,3-dihydrobenzo[b] [1,4] dioxine-2-carboxamide]
inhibition at 10 µM (ROCK II; compound concentration 10 µM): 84.4%
IC50 (ROCK II; [2]): 20 nM
IC50 (ROCK II; value stated in text in nM): 20 nM
melting point: 178 to 180 °C

O=C(Nc1nc(-c2ccncc2)cs1)C1COc2ccccc2O1 (stereo not shown) [II, reference compound]
inhibition at 10 µM (ROCK II; compound concentration 10 µM): 91.3%
IC50 (ROCK II; [2]): 10 ± 3 nM
potency in a cell-based assay (ROCK): much less potent

CN(C)CCOc1cc(-c2cn[nH]c2)ccc1NC(=O)[C@H]1Cc2ccccc2CN1 [I]
bioavailability [1]: low bioavailability
clearance [1]: high clearance

N-(5-((4-Methylpiperazin-1-yl) methyl)-4- (pyridin-4-yl) thiazol-2-yl) isonicotinamide [4q]
Inhibition of ROCKII (%) (ROCK II; compound concentration 10 µM): 48.2%
